The results in this text go back to patent EP1401829B1, “NOVEL HETEROCYCLIC ANTIBACTERIAL COMPOUNDS” (Microbiotix, Inc., priority 2001, dated 2002).

In brackets after ≈: the same amount, converted by molar mass. Read-outs that look alike come from different tables or passages of the source. Marks after values point to notes of the source that are not given here.

One test has as its system E. fecalis. The experiment in a line: Minimal Inhibitory Concentration (MIC) determination, 96 well plates. Format: cell-based, Enterococcus fecalis. The following applies: Enterococcus; HBI medium, 16 to 18 hours at 37°C; read-out: MIC (µg/ml) E. fecalis. The essentials: (§1)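 Broth growth in Heart-Brain Infusion medium, seeded at about 1x10^5 CFU/ml, 16 to 18 hours at 37°C. Growth read at OD 600 nm as percent of untreated control; five concentrations per drug, five data points each, MIC reported in µg/ml.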

The subject of a further test is B. subtilis. The description is as above. The following applies: Bacillus subtilis; HBI medium, 16 to 18 hours at 37°C; read-out: MIC (µg/ml) B. subtilis. Format: cell-based, Bacillus subtilis. In a few lines:
as §1

The target in the next test is T1, B. subtilis Pol IIIC (Bacillus subtilis, UniProt P13267).
T1 construct: made in house
T1 sequence (P13267 whole entry): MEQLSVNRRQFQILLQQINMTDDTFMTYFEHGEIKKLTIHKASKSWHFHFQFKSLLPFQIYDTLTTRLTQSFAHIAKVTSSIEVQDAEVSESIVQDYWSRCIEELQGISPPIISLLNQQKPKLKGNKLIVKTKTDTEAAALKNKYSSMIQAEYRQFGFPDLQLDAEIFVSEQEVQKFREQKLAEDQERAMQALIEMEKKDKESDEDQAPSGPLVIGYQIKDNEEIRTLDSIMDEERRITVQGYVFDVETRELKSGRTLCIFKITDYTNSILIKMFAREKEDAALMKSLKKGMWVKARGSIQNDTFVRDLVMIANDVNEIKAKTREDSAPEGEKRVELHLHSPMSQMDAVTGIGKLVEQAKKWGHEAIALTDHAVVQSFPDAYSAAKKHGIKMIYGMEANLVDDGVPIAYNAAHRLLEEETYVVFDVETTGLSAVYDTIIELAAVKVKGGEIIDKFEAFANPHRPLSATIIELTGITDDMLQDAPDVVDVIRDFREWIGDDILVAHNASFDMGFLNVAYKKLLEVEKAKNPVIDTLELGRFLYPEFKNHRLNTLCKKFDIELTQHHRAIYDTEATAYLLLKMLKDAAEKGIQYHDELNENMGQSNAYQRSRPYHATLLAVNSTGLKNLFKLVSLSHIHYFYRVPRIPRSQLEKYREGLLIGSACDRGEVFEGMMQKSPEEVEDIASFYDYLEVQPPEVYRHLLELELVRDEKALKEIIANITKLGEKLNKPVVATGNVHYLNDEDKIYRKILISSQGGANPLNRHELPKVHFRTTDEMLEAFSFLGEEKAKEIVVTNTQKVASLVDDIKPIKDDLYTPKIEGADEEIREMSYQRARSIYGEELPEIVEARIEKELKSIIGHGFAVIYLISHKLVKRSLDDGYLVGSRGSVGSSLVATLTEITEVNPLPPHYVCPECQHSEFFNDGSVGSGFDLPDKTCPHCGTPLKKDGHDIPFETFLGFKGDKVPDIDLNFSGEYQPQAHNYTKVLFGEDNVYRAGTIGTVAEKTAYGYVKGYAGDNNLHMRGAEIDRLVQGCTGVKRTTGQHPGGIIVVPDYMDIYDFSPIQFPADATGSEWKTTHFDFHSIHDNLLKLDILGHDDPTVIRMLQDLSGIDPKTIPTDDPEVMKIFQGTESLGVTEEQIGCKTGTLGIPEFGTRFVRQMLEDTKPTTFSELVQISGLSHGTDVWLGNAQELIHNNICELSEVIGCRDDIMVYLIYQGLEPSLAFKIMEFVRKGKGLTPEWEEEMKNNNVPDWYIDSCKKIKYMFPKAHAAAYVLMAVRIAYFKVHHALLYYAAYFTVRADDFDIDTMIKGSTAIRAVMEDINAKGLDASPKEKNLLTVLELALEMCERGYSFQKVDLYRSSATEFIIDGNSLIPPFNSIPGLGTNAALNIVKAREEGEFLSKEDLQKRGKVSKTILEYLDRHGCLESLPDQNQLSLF
The experiment in a line: Polymerase IIIC (Pol IIIC) assay, determination of Ki values. Format: biochemical. The following applies: assay in absence of dGTP or dATP, Ki is the concentration that reduces control polymerase IIIC activity by 50 percent; for Ki: Ki (µM) Pol IIIC. The essentials:
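Isolated B. subtilis Pol IIIC (0.025–0.06 units) run 10 min at 30°C in 30 mM Tris pH 7.5, 10 mM Mg acetate, 4 mM DTT, 20% glycerol. Substrates were 0.4 mg/ml activated calf thymus DNA, 25 µM dNTPs and 10 µM [3H]dTTP, with dGTP or dATP omitted per compound structure.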

For another test, the system named is S. aureus. The experiment in a line: Minimal Inhibitory Concentration (MIC) determination, 96 well plates. Format: cell-based, Staphylococcus aureus. The note with it: Staphylococcus aureus; HBI medium, 16 to 18 hours at 37°C; read-out: MIC (µg/ml) S. aureus. The essentials: (§2)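 Cultures seeded at approximately 1x10^5 CFU/ml in Heart-Brain Infusion medium were exposed to five compound concentrations, five data points each, for 16 to 18 hours at 37°C. Growth at OD 600 nm was expressed as percent of control, and MIC values are given in µg/ml.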

The test system of another test is E. coli. The description is as above. Type of test: cell-based, Escherichia coli. The note with it: Escherichia coli, read-out: MIC (µg/ml) E. coli. In a few lines: as §2
Another test concerns S.aureus (Smith). Described as above. Format: cell-based, Staphylococcus aureus. The following applies: Staphylococcus aureus; HBI medium, 16 to 18 hours at 37°C; read-out: MIC (µg/ml) S.aureus (Smith). The essentials:
as §1

The next test relates to E. fecium. The description is as above. The note with it: Enterococcus; HBI medium, 16 to 18 hours at 37°C; read-out: MIC (µg/ml) E. fecium. Format: cell-based, Enterococcus fecium. In a few lines:
as §1

For a further test, the system named is VRE 700802. The experiment in a line: In vivo efficacy of Compound 70 in mouse models. On the set-up: species or system Enterococcus faecalis. The following applies: mice, 3x10^8 CFU/mouse + 5% Mucin; positive control, 100mg/kg, t=0. The method, then:
Swiss Webster mice, ca. 20 g each, were infected with Staphylococcus aureus (Smith strain) by the intraperitoneal route. Test compounds (2, 4, 5, 6, 7, 8, 10, 12) were dissolved in 10% dimethylsulfoxide in peanut oil to a concentration of 2 mg/ml. Vancomycin was used as positive control drug (i.e., protection from lethal infection). Fifteen minutes after infection, test compounds, vancomycin, or vehicle alone were given intraperitoneally to groups of five mice each. Animals were monitored for three days, and the number of mice surviving was tabulated for each treatment.
Using the same basic procedure as described above, the in vivo efficacy of Compound 70 was also evaluated at various doses in mice infected with S. aureaus (Smith), MRSA 1094, Enterococcus faecalis, or vancomycin-resistant Enterococcus faecalis strain VRE 700802. […] Negative controls were mice infected that received no treatment. Mucin was employed as an adjuvant to facilitate bacterial infection in mice, where indicated.

Where [1] appears, read: HBI medium, 16 to 18 hours at 37°C.

As a reminder, the Ki is the dissociation constant of the complex between target and ligand, obtained from inhibition or displacement. With `Cc1ccc(Nc2cc(=O)n(CCCCN3CCN(c4cc5c(cc4F)c(=O)c(C(=O)O)cn5C4CC4)C[C@H]3C)c(=O)[nH]2)cc1C` [Compound 96, (R)-3-{4-[1-(1-cyclopropyl-3-carboxy-4-oxo-6-fluoro-7-quinolyl)-3-methyl-4-piperazinyl]butyl}-6-(3,4-dimethylanilino)uracil], the MIC in the test on E. fecalis turned out to be 0.625 µg/mL (≈ 0.991 µM); in the test on B. subtilis, 0.156 µg/mL (≈ 0.247 µM); in the test with S. aureus, 0.625 µg/mL (≈ 0.991 µM); with E. coli (setting [1]), 5 µg/mL (≈ 7.93 µM); with S.aureus (Smith) it was 0.313 µg/mL (≈ 0.496 µM); in the test on E. fecium, 0.625 µg/mL (≈ 0.991 µM). For the same compound, the Ki at B. subtilis Pol IIIC was 0.019 µM.
As for `Cc1ccc(Nc2cc(=O)n(CCCCN3CCN(c4cc5c(cc4F)c(=O)c(C(=O)O)cn5C4CC4)C[C@@H]3C)c(=O)[nH]2)cc1C` [Compound 97, (S)-3-{4-[1-(1-cyclopropyl-3-carboxy-4-oxo-6-fluoro-7-quinolyl)-3-methyl-4-piperazinyl]butyl}-6-(3,4-dimethylanilino)uracil], the MIC in the test with E. fecalis turned out to be 0.625 µg/mL (≈ 0.991 µM); in the test with B. subtilis, 0.235 µg/mL (≈ 0.373 µM); in the test on S. aureus, 1.25 µg/mL (≈ 1.98 µM); in the test with E. coli (setting [1]), 40 µg/mL (≈ 63.4 µM); in the test with S.aureus (Smith) it was 0.625 µg/mL (≈ 0.991 µM); in the test on E. fecium, 1.25 µg/mL (≈ 1.98 µM). Further, affinity on B. subtilis Pol IIIC was put at a Ki of 0.037 µM.
On to `Cc1ccc(Nc2cc(=O)n(CCCCN3CCN(c4c(F)cc5c(=O)c(C(=O)O)cn(C6CC6)c5c4F)C[C@H]3C)c(=O)[nH]2)cc1C` [Compound 98, (R)-3-{4-[1-(1-cyclopropyl-3-carboxy-4-oxo-6,8-difluoro-7-quinolyl)-3-methyl-4-piperazinyl]butyl}-6-(3,4-dimethylanilino)uracil], for which the MIC was found to be 1.25 µg/mL (≈ 1.93 µM) in the test on E. fecalis; 0.313 µg/mL (≈ 0.482 µM) in the test with B. subtilis; 1.25 µg/mL (≈ 1.93 µM) in the test on S. aureus; 5 µg/mL (≈ 7.71 µM) in the test on E. coli (setting [1]); 0.625 µg/mL (≈ 0.963 µM) in the test with S.aureus (Smith); 1.25 µg/mL (≈ 1.93 µM) with E. fecium. The compound further registered a Ki at B. subtilis Pol IIIC of 0.029 µM.
Turning to `Cc1ccc(Nc2cc(=O)n(CCCCN3CCN(c4c(F)cc5c(=O)c(C(=O)O)cn(C6CC6)c5c4F)C[C@@H]3C)c(=O)[nH]2)cc1C` [Compound 99, (S)-3-{4-[1-(1-cyclopropyl-3-carboxy-4-oxo-6,8-difluoro-7-quinolyl)-3-methyl-4-piperazinyl]butyl}-6-(3,4-dimethylanilino)uracil], the MIC in the test on E. fecalis was 0.625 µg/mL (≈ 0.963 µM); in the test with B. subtilis it was 0.156 µg/mL (≈ 0.24 µM); in the test on S. aureus, 0.313 µg/mL (≈ 0.482 µM); with E. coli (setting [1]) it was 0.625 µg/mL (≈ 0.963 µM); with S.aureus (Smith) it was 0.156 µg/mL (≈ 0.24 µM); in the test with E. fecium, 1.25 µg/mL (≈ 1.93 µM). On B. subtilis Pol IIIC, this compound yielded a Ki of 0.03 µM.
Turning to `CCc1cc(Nc2cc(=O)n(CCCCN3CCN(c4cc5c(cc4F)c(=O)c(C(=O)O)cn5C4CC4)C[C@@H]3C)c(=O)[nH]2)ccc1C` [Compound 100, (S)-3-{4-[1-(1-cyclopropyl-3-carboxy-4-oxo-6-fluoro-7-quinolyl)-3-methyl-4-piperazinyl]butyl}-6-(3-ethyl-4-methylanilino)uracil], the MIC turned out to be 0.475 µg/mL (≈ 0.737 µM) with E. fecalis; 0.156 µg/mL (≈ 0.242 µM) with B. subtilis; 0.937 µg/mL (≈ 1.45 µM) in the test on S. aureus; 50 µg/mL (≈ 77.5 µM) in the test on E. coli (setting [1]); 0.625 µg/mL (≈ 0.969 µM) with S.aureus (Smith); 0.937 µg/mL (≈ 1.45 µM) with E. fecium. The same compound returned a Ki at B. subtilis Pol IIIC of 0.011 µM.
Take `Cc1ccc(Nc2cc(=O)n(CCCCN3CCN(c4c(F)cc5c(=O)c(C(=O)O)cn(C6CC6)c5c4F)CC3)c(=O)[nH]2)cc1C` [Compound 101, 3-{4-[1-(1-cyclopropyl-3-carboxy-4-oxo-6,8-difluoro-7-quinolyl)-4-piperazinyl]butyl}-6-(3,4-dimethylanilino)uracil]: the MIC with E. fecalis came out at 0.937 µg/mL (≈ 1.48 µM); with B. subtilis, 0.235 µg/mL (≈ 0.37 µM); in the test with S. aureus, 0.625 µg/mL (≈ 0.985 µM); in the test with E. coli (setting [1]), 5 µg/mL (≈ 7.88 µM); in the test with S.aureus (Smith) it was 0.313 µg/mL (≈ 0.493 µM); in the test with E. fecium, 1.25 µg/mL (≈ 1.97 µM). Besides, the Ki at B. subtilis Pol IIIC came to 0.024 µM.
With `O=C(O)c1cn(C2CC2)c2cc(N3CCNCC3)c(F)cc2c1=O` [cflxn, ciprofloxacin, reference compound], the MIC stood at 0.156 µg/mL (≈ 0.471 µM) with B. subtilis, 0.156 µg/mL (≈ 0.471 µM) in the test with S. aureus, 0.078 µg/mL (≈ 0.235 µM) with E. coli (setting [1]) and 0.078 µg/mL (≈ 0.235 µM) with S.aureus (Smith). Besides, the “Ki (µM) Pol IIIC” value on B. subtilis Pol IIIC is “inactive”. Also, the “% Survival at 72 hours” value in the test with VRE 700802 is “ciprofloxacin (100mg/kg, t=0) 90% (9/10)**”.
With `CCn1cc(C(=O)O)c(=O)c2cc(F)c(N3CCNCC3)cc21` [nflxn, norfloxacin, reference compound], the MIC in the test with E. fecalis is 2.5 µg/mL (≈ 7.83 µM); in the test on B. subtilis, 0.625 µg/mL (≈ 1.96 µM); in the test on S. aureus, 0.625 µg/mL (≈ 1.96 µM); with E. coli it was 0.078 µg/mL (≈ 0.244 µM); in the test with S.aureus (Smith) it was 0.156 µg/mL (≈ 0.489 µM); in the test with E. fecium, 20 µg/mL (≈ 62.6 µM). For the same compound, the “Ki (µM) Pol IIIC” value on B. subtilis Pol IIIC is “inactive”.
